Legend:
[1] = Growth effect, tomatoes (Table III); type: in vivo; conditions: every 10 days, foliar, chemical compound 3 kg, extract 5 grams
Protocol: (§1) These chemical compounds were tested at rates 0.25 to 3 kg per acre of citrus, strawberries, tomatoes and bananas by themselves to measure (A) fertilizer effect on foliar uptake, (B) growth effect, (C) resistance induction effect. These compounds were then combined with extracts of pseudomonas, subtilis species and actinomyces and applied to the similar set of plants and measured for A, B, and C as above. These extracts were also applied to a similar set of plants and measured for A, B, and C as above.

[2] = tested on: leaf disease, botrylis; assay: Induction of resistance, tomato leaf infection (Table III); type: in vivo; conditions: tomatoes, every 10 days, foliar; chemical compound 3 kg, extract 5 grams
Protocol: as §1

[3] = tested on: mildew; assay: Specific microorganism extracts and chemical compounds, grape mildew (Table II); type: in vivo, grapes
[4] = tested on: infected leaves and fruits; type: in vivo; conditions: strawberry every 10 days, foliar; chemical compound 25 grams, extract 5 grams
[5] = tested on: fire blight; assay: Specific microorganism extracts and chemical compounds, apple fire blight burn (Table II); type: in vivo, apples
[6] = Growth effect, strawberry (Table III); type: in vivo; conditions: every 10 days, chemical compound 3 kg, extract 5 grams
Protocol: as §1

[7] = tested on: infection of leaves; type: in vivo; conditions: lettuce every 10 days, foliar; chemical compound 25 grams, extract 5 grams
[8] = tested on: leaf disease; assay: Induction of resistance, strawberry leaf disease (Table III); type: in vivo; conditions: every 10 days, chemical compound 3 kg, extract 5 grams
Protocol: as §1

[9] = tested on: Black Sigatoka; assay: Induction of resistance, banana Sigatoka (Table III); type: in vivo; conditions: bananas, every week, foliar, for 6 months; chemical compound 3 kg, extract 5 grams
Protocol: as §1

[10] = tested on: sigatoka; assay: Specific microorganism extracts and chemical compounds, banana sigatoka (Table II); type: in vivo
[11] = Growth effect, citrus (Table III); type: in vivo; conditions: foliar, 4 times in 1 year, chemical compound 3 kg, extract 5 grams
Protocol: as §1

[12] = tested on: leaf infection; type: in vivo, tomato; conditions: tomatoes every week, foliar; chemical compound 25 grams, extract 5 grams
[13] = Growth effect, bananas (Table III); type: in vivo; conditions: every week, foliar, for 6 months, chemical compound 3 kg, extract 5 grams
Protocol: as §1

[14] = tested on: phytopthora; assay: Induction of resistance, tomato phytopthora in roots (Table III); type: in vivo; conditions: tomatoes, every 10 days, foliar; chemical compound 3 kg, extract 5 grams
Protocol: as §1

[15] = tested on: phytopthora; assay: Induction of resistance, citrus phytopthora in roots (Table III); type: in vivo; conditions: foliar, 4 times in 1 year, chemical compound 3 kg, extract 5 grams
Protocol: as §1

[16] = tested on: die back; assay: Induction of resistance, citrus die back (Table III); type: in vivo; conditions: foliar, 4 times in 1 year, chemical compound 3 kg, extract 5 grams
Protocol: as §1

[17] = tested on: infection of fruits; type: in vivo; conditions: blueberry every 15 days, foliar; chemical compound 25 grams, extract 5 grams
[18] = tested on: early & late blight; type: in vivo; conditions: potatoes 4 times during season, foliar; chemical compound 25 grams, extract 5 grams
[19] = tested on: nematodes; assay: Resistance induction in tomato plants, nematodes (Table I C); conditions: in vivo
[20] = tested on: phytopthora; type: in vivo; conditions: tomato plants, chemical compound 1.5 kg per acre, extract 5 grams per acre, every 10 days
[21] = tested on: Fire Blight; assay: Resistance induction in apple trees against fire blight (Table I B); conditions: in vivo
[22] = tested on: Black Sigatoka; assay: Resistance induction in bananas against Black Sigatoka (Table I D); parameters: species or system banana; conditions: in vivo
[23] = tested on: Nematodes; assay: Resistance induction in bananas against nematodes (Table I D); parameters: species or system banana; conditions: in vivo
[24] = tested on: foliar infection; type: in vivo; conditions: tomato plants, chemical compound 1.5 kg per acre, extract 5 grams per acre, every 10 days
[25] = tested on: Foliar Infections; type: in vivo; conditions: strawberry plant, chemical compound 1.5 kg per acre, extract 5 grams per acre, once a week
[26] = tested on: nematode; assay: Resistance induction in strawberry plant, root infection (Table I A); conditions: in vivo
[27] = bananas every week for 6 months, foliar, chemical compound 25 grams alone

| Molecule | infected leaves [4] | infection of leaves [7] | infected leaves / leaf infection [12] | infection of fruits [17] | infected leaves (early & late blight) [18] | Results In Foliar & Root Infections: nematode [19] | Results In Foliar & Root Infections: phytopthora [20] | Results On Development of Fire Blight [21] | Results On Black Sigatoka: Leaves at Flowering [22] | Results On Nematode Infection [23] | Results In Foliar & Root Infections: foliar infection [24] | Results in Foliar Infections [25] | Results in Root Infection (nematode infection) [26] | also measured |
| --- | --- | --- | --- | --- | --- | --- | --- | --- | --- | --- | --- | --- | --- | --- |
| potassium phosphite | 85% infection | 85% infection | 100% infection | 35% infection of fruits | 35% leaf infection |  |  |  |  |  |  |  |  | Growth effect [1]: no increase; Induction of Resistance: leaf infection [2]: 35% leaf infection; mildew ([3]; grapes every 15 days, foliar, chemical compound 25 grams, extract 5 grams): 70% mildew; fire blight burn (leaves) ([5]; apples (2 yr old) 10 days post bud break & 1 week later, foliar, chemical compound 25 grams, extract 5 grams): 25% fire blight burn; Growth effect [6]: no increase; Induction of Resistance: leaf disease, infection [8]: suppression, 25% infection; Induction of Resistance: Sigatoka control, leaves with no symptoms [9]: only 4 youngest leaves; infection (sigatoka, leaves) [10, 27]: 90%; infection-all leaves except youngest (number of youngest leaves) [10, 27]: 4; Growth effect [11]: zero improvement; Growth effect [13]: no increase; Induction of Resistance: phytopthora in roots [14]: phytopthora zero control,; Induction of Resistance: phytopthora in roots [15]: zero resistance to phytopthora,; Induction of Resistance: die back [16]: die back as usual |
| O=P(O)(O)O [potassium phosphate] |  |  |  |  |  | 15% foliar infection, 15% phytopthora, 20% nematrode | 15% foliar infection, 15% phytopthora, 20% nematrode | 18% fire blight | 7 Leaves at Flowering, High Nematode infection | 7 Leaves at Flowering, High Nematode infection | 15% foliar infection, 15% phytopthora, 20% nematrode | 20% infection | 20% nematode infection |  |
| O=[N+]([O-])[O-].O=[N+]([O-])[O-].[Ca+2] [calcium nitrate] |  |  |  |  |  | 15% foliar infection, 15% phytopthora, 20% nematrode | 15% foliar infection, 15% phytopthora, 20% nematrode | 20% fire blight | 7 Leaves at Flowering, High Nematode infection | 7 Leaves at Flowering, High Nematode infection | 15% foliar infection, 15% phytopthora, 20% nematrode | 20% infection | 20% nematode infection |  |
| O=C([O-])CC(O)(CC(=O)[O-])C(=O)[O-].O=C([O-])CC(O)(CC(=O)[O-])C(=O)[O-].[Ca+2].[Ca+2].[Ca+2] [calcium citrate] | 80% infection | 90% infection | 85% infection | 30% infection of fruits | 25% leaf infection |  |  |  |  |  |  |  |  | mildew ([3]; in vivo): 55% mildew; fire blight burn (leaves) ([5]; in vivo): 20% fire blight burn; infection (sigatoka, leaves) ([10]; in vivo): 85% infection-all leaves except youngest 3; infection-all leaves except youngest (number of youngest leaves) ([10]; in vivo): 85% infection-all leaves except youngest 3 |

— patent US20070142227A1, “Systemic inducer composition for plants” (priority 2003, published 2007)
